Laboratory results as given in PMC9927415, “Tyrosine Kinase Inhibitors Display Potent Activity against Cryptosporidium parvum” (Microbiology Spectrum, 2022).
Where two headings read alike, the source gives them in different places.

Tests used:
Assay in all cases: KINOMEscan competitive binding
AXL = biological target: T1, AXL (Homo sapiens, UniProt P30530)
T1 construct: purchased DiscoverX (KINOMEscan)
T1 sequence (P30530 26-894): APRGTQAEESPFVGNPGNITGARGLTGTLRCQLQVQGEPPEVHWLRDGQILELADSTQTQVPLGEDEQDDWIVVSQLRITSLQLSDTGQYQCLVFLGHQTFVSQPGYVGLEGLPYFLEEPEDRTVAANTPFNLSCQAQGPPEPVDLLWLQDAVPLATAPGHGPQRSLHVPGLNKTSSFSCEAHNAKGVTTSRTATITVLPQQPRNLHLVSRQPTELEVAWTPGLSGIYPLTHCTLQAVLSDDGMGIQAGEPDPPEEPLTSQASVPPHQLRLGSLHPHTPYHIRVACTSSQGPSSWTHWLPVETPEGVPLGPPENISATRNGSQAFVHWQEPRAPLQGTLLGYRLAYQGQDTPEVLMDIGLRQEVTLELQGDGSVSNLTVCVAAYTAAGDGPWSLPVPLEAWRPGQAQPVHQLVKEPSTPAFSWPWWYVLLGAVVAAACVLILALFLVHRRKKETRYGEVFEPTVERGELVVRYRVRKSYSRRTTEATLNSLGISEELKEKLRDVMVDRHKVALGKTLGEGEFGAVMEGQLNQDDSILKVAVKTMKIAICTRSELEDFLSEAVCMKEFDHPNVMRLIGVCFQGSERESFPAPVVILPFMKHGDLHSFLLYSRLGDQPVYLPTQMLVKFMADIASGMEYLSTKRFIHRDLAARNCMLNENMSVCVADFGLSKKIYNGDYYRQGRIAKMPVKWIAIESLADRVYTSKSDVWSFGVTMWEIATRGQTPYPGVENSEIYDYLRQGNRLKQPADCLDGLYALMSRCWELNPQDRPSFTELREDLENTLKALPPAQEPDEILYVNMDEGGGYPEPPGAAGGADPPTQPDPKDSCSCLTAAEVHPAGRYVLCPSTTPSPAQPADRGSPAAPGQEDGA
Text: (§1) The kinases were expressed as fusions to T7 bacteriophage. This is a sensitive, competitive binding assay where test compounds were used to displace immobilized ATP-site binding probe ligands from kinases of interest. The amount of kinase that remained bound to the immobilized probe ligands on the solid support was quantified. Percentage inhibition data were was plotted on kinome trees using the web-based tool KinMap (http://www.kinhub.org/kinmap) ([60]).

CDK2 = biological target: T2, CDK2 (Homo sapiens, UniProt P24941)
T2 construct: purchased DiscoverX (KINOMEscan)
Text: as §1

CSNK1D = biological target: T3, CSNK1D (Homo sapiens, UniProt P48730)
T3 construct: purchased DiscoverX (KINOMEscan)
T3 sequence (P48730 whole entry): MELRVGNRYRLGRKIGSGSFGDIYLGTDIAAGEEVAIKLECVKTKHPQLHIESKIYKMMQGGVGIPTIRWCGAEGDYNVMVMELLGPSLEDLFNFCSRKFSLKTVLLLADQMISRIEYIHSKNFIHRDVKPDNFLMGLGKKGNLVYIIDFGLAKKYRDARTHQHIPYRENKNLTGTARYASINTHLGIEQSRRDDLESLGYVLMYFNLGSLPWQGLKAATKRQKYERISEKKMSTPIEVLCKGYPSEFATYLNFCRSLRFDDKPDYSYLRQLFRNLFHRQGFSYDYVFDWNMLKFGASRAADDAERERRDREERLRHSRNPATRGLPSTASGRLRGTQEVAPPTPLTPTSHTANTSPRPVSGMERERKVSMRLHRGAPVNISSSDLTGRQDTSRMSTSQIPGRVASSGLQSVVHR
Text: as §1

LKB1 = biological target: T4, LKB1 (Homo sapiens, UniProt Q15831)
T4 construct: purchased DiscoverX (KINOMEscan)
T4 sequence (Q15831 1-433): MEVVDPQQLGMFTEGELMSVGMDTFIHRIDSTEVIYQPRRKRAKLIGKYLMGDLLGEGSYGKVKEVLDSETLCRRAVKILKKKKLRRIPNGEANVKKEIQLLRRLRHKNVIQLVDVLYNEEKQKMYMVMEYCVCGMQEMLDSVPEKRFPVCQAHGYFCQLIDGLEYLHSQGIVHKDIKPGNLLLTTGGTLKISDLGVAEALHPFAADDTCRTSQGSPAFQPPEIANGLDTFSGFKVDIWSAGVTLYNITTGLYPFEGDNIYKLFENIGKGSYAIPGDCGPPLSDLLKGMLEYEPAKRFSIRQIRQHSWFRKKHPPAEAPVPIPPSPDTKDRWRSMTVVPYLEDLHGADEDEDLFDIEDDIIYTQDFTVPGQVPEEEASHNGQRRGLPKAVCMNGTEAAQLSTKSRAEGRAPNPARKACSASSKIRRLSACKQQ
Text: as §1

TTK = biological target: T5, TTK (Homo sapiens, UniProt P33981)
T5 construct: purchased DiscoverX (KINOMEscan)
T5 sequence (P33981 1-857): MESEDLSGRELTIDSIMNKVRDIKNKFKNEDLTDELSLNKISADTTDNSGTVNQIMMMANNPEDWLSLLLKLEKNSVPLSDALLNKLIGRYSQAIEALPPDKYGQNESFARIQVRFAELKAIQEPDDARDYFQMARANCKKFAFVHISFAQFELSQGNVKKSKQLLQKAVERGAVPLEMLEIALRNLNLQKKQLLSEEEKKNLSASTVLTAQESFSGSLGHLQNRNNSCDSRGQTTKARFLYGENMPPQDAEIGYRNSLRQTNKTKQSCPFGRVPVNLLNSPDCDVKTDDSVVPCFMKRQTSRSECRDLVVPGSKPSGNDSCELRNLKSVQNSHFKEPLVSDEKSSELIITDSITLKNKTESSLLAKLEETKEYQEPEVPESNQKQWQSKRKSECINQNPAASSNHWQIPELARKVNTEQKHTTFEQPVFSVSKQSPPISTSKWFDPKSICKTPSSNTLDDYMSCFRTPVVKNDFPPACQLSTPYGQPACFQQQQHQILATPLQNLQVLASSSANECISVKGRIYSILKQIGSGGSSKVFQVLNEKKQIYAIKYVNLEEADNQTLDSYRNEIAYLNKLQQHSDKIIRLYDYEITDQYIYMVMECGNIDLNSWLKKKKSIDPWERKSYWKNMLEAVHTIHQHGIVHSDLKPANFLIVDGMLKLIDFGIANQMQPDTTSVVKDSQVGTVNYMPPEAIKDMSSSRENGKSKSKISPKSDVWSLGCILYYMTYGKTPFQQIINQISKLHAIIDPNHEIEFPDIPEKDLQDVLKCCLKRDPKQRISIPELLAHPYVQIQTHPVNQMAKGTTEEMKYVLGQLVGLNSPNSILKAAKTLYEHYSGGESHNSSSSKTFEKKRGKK
Text: as §1

[1] = 10 µM, n=1, kinase AXL, read-out: Percent inhibition AXL
[2] = 10 µM, n=1, kinase CDK2, read-out: Percent inhibition CDK2
[3] = 10 µM, n=1, kinase CSNK1D, read-out: Percent inhibition CSNK1D
[4] = 10 µM, n=1, kinase LKB1, read-out: Percent inhibition LKB1
[5] = KINOMEscan, 10 µM, n=1, read-out: Percent inhibition, TTK
[6] = 10 μM, n = 1, read-out: percent inhibition CDK2

| Compound | inhibition at 10 µM (AXL; [1]) [%] | inhibition at 10 µM (CDK2; [2]) [%] | inhibition at 10 µM (CSNK1D; [3]) [%] | inhibition at 10 µM (LKB1; [4]) [%] | inhibition at 10 µM (TTK; [5]) [%] | inhibition at 10 µM (CDK2; [6]) [%] | inhibition at 10 µM (CSNK1D; 10 μM, n = 1, read-out: percent inhibition CSNK1D) [%] | inhibition at 10 µM (TTK; 10 μM, n = 1, read-out: percent inhibition TTK) [%] | inhibition at 10 µM (AXL; 10 μM, n = 1, read-out: percent inhibition AXL) [%] | inhibition at 10 µM (LKB1; 10 μM, n = 1, read-out: percent inhibition LKB1) [%] |
| --- | --- | --- | --- | --- | --- | --- | --- | --- | --- | --- |
| Cc1ccc(O)cc1Nc1ccnc(Nc2cccc(C(N)=O)c2)n1 [Compound 3] | 0 | 0 | 100 | 74.3 | 98.7 |  |  |  |  |  |
| Cc1ccc(O)cc1N(C)c1ccnc(Nc2cccc(S(N)(=O)=O)c2)n1 [Compound 4] | 0 | 0 | 100 | 77.3 | 91.8 |  |  |  |  |  |
| CN1CCN(c2ccc(Nc3nccc(-c4cnn5ncccc45)n3)cc2C#N)CC1 [Compound 1] | 100 | 99.5 | 100 | 100 | 99.9 | > 99 |  |  |  |  |
| Clc1ccc(Nc2ncc(-c3ccccc3)s2)cc1 [Compound 10] | 0 | 0 | 0 | 67.6 | 0 |  |  |  |  |  |
| Nc1ncc2c(-c3ccncc3)c[nH]c2n1 [Compound 11] | 0 | 0 | 99.9 | 80 | 99.5 |  | ≥ 99 | ≥ 99 |  |  |
| Fc1cccc(COc2ccc(Nc3ncnc4c3CN(CCN3CCOCC3)CC4)cc2Cl)c1 [Compound 6] | 0 | 0 | 0 | 0 | 0 |  |  |  |  |  |
| COc1ccc(Nc2nccc(-c3cnn4ncccc34)n2)cc1 [Compound 2] | 77.8 | 99.9 | 100 | 96.1 | 100 | > 99 |  |  |  |  |
| C[C@@H](Oc1cc(-c2cnc3ccccn23)sc1C(N)=O)c1ccccc1Cl [Compound 8] | 89 | 0 | 0 | 98.3 | 69.8 |  |  |  |  |  |
| COc1cc(Nc2nccc(-c3sc(N)nc3-c3cccc(NC(=O)c4c(F)cccc4F)c3)n2)cc(OC)c1OC [Compound 7] | 99 | 0 | 76.3 | 0 | 99.2 |  |  |  |  |  |
| c1ccc(COc2cccc(-c3ccnc4[nH]ccc34)c2)cc1 [Compound 9] | 93.8 | 0 | 0 | 99.5 | 0 |  |  |  | ≥ 90 | ≥ 99 |
